These results are taken from ChEMBL document CHEMBL5113463, “Discovery and preclinical evaluations of JBD0131, a novel nitrodihydro-imidazooxazole anti-tuberculosis agent” (Bioorg Med Chem Lett, 2022).

In brackets after ≈: the same amount, converted by molar mass.

This experiment deals with Mycobacterium tuberculosis. Put plainly: Antimycobacterial activity against clinical isolate multidrug resistant Mycobacterium tuberculosis H37Rv assessed as bacterial growth inhibition. Type of experiment: functional.
For the compound `NNC(=O)c1ccncc1` [ISONIAZID], the MIC50 (usually an inhibitory concentration at the 50% level, which refers to growth in some studies and to a panel of isolates in others) was 4.37 µg/mL (≈ 31.9 µM); the MIC90 – broadly, an inhibitory concentration at the 90% level, which refers to growth in some studies and to a panel of isolates in others – is > 40 µg/mL.

Take `C[C@]1(COc2ccc(N3CCC(Oc4ccc(OC(F)(F)F)cc4)CC3)cc2)Cn2cc([N+](=O)[O-])nc2O1`: the MIC50 worked out at 0.002 µg/mL (≈ 0.00374 µM) and the MIC90 stood at 0.003 µg/mL (≈ 0.00561 µM).

As to `C[C@]1(CN2Cc3nc(-c4ccc(F)cc4)sc3C2)CN=C(N)O1`, the MIC50 was determined as 0.011 µg/mL (≈ 0.0331 µM) and the MIC90 worked out at 0.035 µg/mL (≈ 0.105 µM).

In the case of `NC[C@H]1O[C@H](O[C@H]2[C@H](O)[C@@H](O[C@H]3O[C@H](CO)[C@@H](O)[C@H](N)[C@H]3O)[C@H](N)C[C@@H]2N)[C@H](O)[C@@H](O)[C@@H]1O` [KANAMYCIN], the MIC50 amounted to 1.24 µg/mL (≈ 2.55 µM) and the MIC90 was > 40 µg/mL.

As for `CO[C@H]1/C=C/O[C@@]2(C)Oc3c(C)c(O)c4c(O)c(c(/C=N/N5CCN(C)CC5)c(O)c4c3C2=O)NC(=O)/C(C)=C\C=C\[C@H](C)[C@H](O)[C@@H](C)[C@@H](O)[C@@H](C)[C@H](OC(C)=O)[C@@H]1C` [RIFAMPIN], the MIC50 was > 40 µg/mL and the MIC90 was > 40 µg/mL.
